Consider 24 compounds from US11760744B2, “Fused ring compounds” (Genentech, Inc., priority 2018, dated 2023).

The IC50 is the midpoint of a concentration-inhibition curve. Low readings indicate higher potency, high ones lower potency. In general, EC50 refers to the concentration giving half of the maximal effect. A lower EC50 goes with an effect from little substance. For orientation: half-life means the time needed for the level to fall by half in the phase considered. Low values mean rapid decline, high ones slow decline.

Molecules are shown by their SMILES.

In series [1] the target is T1, K-Ras G12C mutant protein (Homo sapiens, UniProt P01116, G12C).
T1 construct: K-Ras G12C (residues 2-188) and SOS1 (residues 564-1049) had N-terminal 6-His; made in house; host or cells: E. coli
T1 sequence (P01116 2-188 isoform P01116-2 G12C): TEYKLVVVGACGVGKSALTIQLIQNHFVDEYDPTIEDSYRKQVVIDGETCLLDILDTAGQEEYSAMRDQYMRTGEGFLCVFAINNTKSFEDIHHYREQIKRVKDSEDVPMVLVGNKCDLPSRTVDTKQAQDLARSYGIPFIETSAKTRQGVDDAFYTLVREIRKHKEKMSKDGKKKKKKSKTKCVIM
The series is described as follows: K-Ras G12C HTRF assay. In kind it is biochemical. The following applies: Table 1; unit or assay not given; several values in one cell. On the procedure:
In the above definition of R^2, the electrophilic moiety that is capable of forming a covalent bond with a cysteine residue is determined via K-Ras G12C-alkylation studies and Homogeneous Time Resolved Fluorescence (HTRF) assays. The G12C mutation of the K-Ras gene is a change in amino acid from glycine to cysteine at the 12th amino acid. The compounds according to the present disclosure were discovered using the HTRF assay and the K-Ras G12C-alkylation assay, as further detailed elsewhere herein below, and then NMR spectroscopy was later used to validate the specificity with which the molecule was attaching to G12C.
(TR-FRET usually uses a lanthanide donor and a delayed reading to cut background.)

In series [2] the target is T2, K-Ras G12C (Homo sapiens, UniProt P01116, G12C). Put plainly: Western blot assay for in cell alkylation of K-Ras G12C (HCC1171 cells). In kind it is cell-based. Also noted: endogenous in cells; host or cells: HCC1171. The following applies: 18 hours at 37° C., 7 point dose response. In a few lines: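 HCC1171 cells exposed to compounds for 18 h at 37° C, lysed, and analysed by SDS-PAGE/western blot with anti-K-Ras antibody and fluorescent secondary. Alkylated K-Ras separated by band shift; % alkylation = FI(alkylated)/(FI(alkylated)+FI(unalkylated))×100, IC50 from 7-point dose response.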
Target sequence in this assay (P01116 1-188 isoform P01116-2 G12C): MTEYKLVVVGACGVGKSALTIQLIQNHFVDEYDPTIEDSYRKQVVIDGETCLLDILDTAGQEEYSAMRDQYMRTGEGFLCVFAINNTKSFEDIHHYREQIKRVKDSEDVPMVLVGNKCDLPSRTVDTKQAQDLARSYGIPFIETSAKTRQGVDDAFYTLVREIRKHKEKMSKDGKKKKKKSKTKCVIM

In series [3] the target is T2, K-Ras G12C. The series is described as follows: K-Ras G12C, SOS1, Raf RBD HTRF assay for inhibition of GTP exchange. It is filed as biochemical. Also noted: K-Ras G12C (residues 2-188) and SOS1 (residues 564-1049) had N-terminal 6-His; made in house; host or cells: E. coli. The following applies: 18 hours preincubation with K-Ras G12C at room temperature; SOS1-mediated GTP exchange. In a few lines: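 After 18 h at room temperature with compound, SOS1 (1.25 nM final) started exchange to GTP (150 μM final). C-Raf RBD, Tb-anti-FLAG and D2-anti-his (50, 1 and 12.5 nM) were then added. The 665/615 nm HTRF ratio was read after 2 h; buffer was HEPES/NaCl, 1 mM MgCl2, BSA, Tween-20 and DTT.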
Target sequence in this assay (P01116 2-188 isoform P01116-2 G12C): as the sequence (P01116 2-188 isoform P01116-2 G12C) above

The nature of series [4]: Whole blood stability assay. In kind it is in vitro ADME. The following applies: fresh whole blood, drug 1 μM, 37° C., 180 minutes incubation. On the procedure: Whole Blood Stability Assay A whole blood stability assay was performed using fresh blood with a drug final concentration of 1 μM. The drug-blood mixtures were incubated at 37° C. for 180 minutes.

On to `C=CC(=O)N1CCN(c2ncnc3c2CCC(c2c(C)ccc4[nH]ncc24)C3)CC1` (racemic) [Example 2, 1-(4-(7-(5-methyl-1H-indazol-4-yl)-5,6,7,8-tetrahydroquinazolin-4-yl)piperazin-1-yl)prop-2-en-1-one], for which the IC50 in series [1] and in series [3] was 0.84 µM each time. Moreover, the 50% effective concentration (EC50) in series [2] came to 6.1 µM.

As for `C=CC(=O)N1CCN(c2nc(OC[C@@H]3CCCN3C)nc3c2C[C@@H](C)[C@H](c2c(F)c(N)cc(C)c2C(F)(F)F)C3)[C@@H](C)C1` (single isomer, unassigned) [Example 12b], the half-life at 1 μM in series [4] is above 9 h. The midpoint of the response in series [2], the EC50, lay at 0.0033 µM. The compound further displayed an IC50 in series [3] below 0.01 µM.

Compound `C=CC(=O)N1CCN(c2nc(OC[C@@H]3CCCN3C)nc3c2C[C@@H](C)[C@H](c2nc(N)cc(C)c2C(F)(F)F)C3)CC1` (single isomer, unassigned) [Example 20a] had a half-life at 1 μM in series [4] of 3.83 h. For the same compound, a half-maximal response in series [2] (EC50) required 0.014 µM. In series [3], this compound displayed a 50% inhibitory concentration (IC50) below 0.01 µM.

In series [4], `C=CC(=O)N1CCN(c2nc(OC[C@@H]3CCCN3C)nc3c2C[C@@H](C)[C@H](c2nc(N)cc(C)c2C(F)(F)F)C3)[C@@H](C)C1` (single isomer, unassigned) [Example 21b] registered a half-life at 1 μM above 9 h. For the same compound, the midpoint of the response in series [2], the EC50, lay at 0.006 µM. The same compound yielded an IC50 in series [3] below 0.01 µM.

In turn, `C=CC(=O)N1CCN(c2nc(OC[C@@H]3CCCN3C)nc3c2C[C@@H](C)[C@H](c2cc(O)cc4ccccc24)C3)[C@@H](C)C1` (single isomer, unassigned) [Example 22b] returned a half-life at 1 μM in series [4] above 9 h. Further, in series [2], a half-maximal effect (EC50) was put at 0.0061 µM. The IC50 in series [3] is below 0.01 µM.

In the case of `C=CC(=O)N1CCN(c2nc(OC[C@@H]3CCCN3C)nc3c2C[C@@H](C)[C@H](c2c(C(F)(F)F)ccc(N)c2F)C3)[C@@H](C)C1` (single isomer, unassigned) [Example 23b], the half-life at 1 μM in series [4] was 4.67 h. For the same compound, the EC50 in series [2] amounted to 0.0066 µM. The half-inhibitory concentration (IC50) in series [3] is below 0.01 µM.

`C=CC(=O)N1CCN(c2nc(OC[C@@H]3CCCN3C)nc3c2CC[C@H](c2cc(O)cc4ccccc24)C3)[C@@H](C)C1` (single isomer, unassigned) [Example 28b]: in series [4], the half-life at 1 μM turned out to be 7 h. The same compound displayed an EC50 in series [2] of 0.023 µM. In series [3], this compound yielded an IC50 below 0.01 µM.

`C=CC(=O)N1CCN(c2nc(OC[C@@H]3C[C@@H](F)CN3C)nc3c2CC[C@H](c2cc(O)cc4ccccc24)C3)[C@@H](C)C1` (single isomer, unassigned) [Example 31a] returned a half-life at 1 μM in series [4] of 6.83 h. In addition, the half-maximal effective concentration (EC50) in series [2] was 0.013 µM. Also, in series [3], the concentration for half-maximal inhibition (IC50) was below 0.01 µM.

For `C=C(F)C(=O)N1CCN(c2nc(OC[C@@H]3CCCN3C)nc3c2C[C@@H](C)[C@H](c2c(F)c(N)cc(C)c2C(F)(F)F)C3)C[C@@H]1CC#N` (single isomer, unassigned) [Example 34c], in series [4], the half-life at 1 μM is above 9 h. Further, the half-maximal effective concentration (EC50) in series [2] amounted to 0.014 µM. In series [3], this compound gave a concentration for half-maximal inhibition (IC50) below 0.01 µM.

In series [4], `C=C(F)C(=O)N1CCN(c2nc(OC[C@@H]3CCCN3C)nc3c2CC(C)C(c2c(F)c(N)cc(C)c2C(F)(F)F)C3)CC1CC#N` (single isomer, unassigned) [Example 34d] yielded a half-life at 1 μM above 9 h. This compound also showed a concentration for a half-maximal effect (EC50) in series [2] of 0.0067 µM. For the same compound, the IC50 in series [3] was below 0.01 µM.

For `C=CC(=O)N1CCN(c2nc(OC[C@@H]3CCCN3C)nc3c2C[C@@H](C)[C@H](c2cccc4c2CCC4)C3)C[C@H]1CC#N` (single isomer, unassigned) [Example 35b], in series [4], the half-life at 1 μM turned out to be 1.52 h. The compound also gave a half-maximal effective concentration (EC50) in series [2] of 0.017 µM. The same compound came in with a concentration for half-maximal inhibition (IC50) in series [3] of 0.011 µM.

In turn, `CN(C)C/C=C/C(=O)Nc1cc2c(Nc3ccc(F)c(Cl)c3)ncnc2cc1O[C@H]1CCOC1` [Afatinib, reference compound] showed a half-life at 1 μM in series [4] of 1.25 h.

For `C=CC(=O)N1CCN(c2ncnc3c2CC(C(C)C)C(c2cc(O)cc4ccccc24)C3)CC1` (stereo not drawn) [Example 16, 1-(4-(7-(3-hydroxynaphthalen-1-yl)-6-isopropyl-5,6,7,8-tetrahydroquinazolin-4-yl)piperazin-1-yl)prop-2-en-1-one], the 50% inhibitory concentration (IC50) in series [1] and in series [3] was 0.12 µM each time. Further, the EC50 in series [2] worked out at 1.2 µM.

Turning to `C=CC(=O)N1CCN(c2ncnc3c2CCC(c2c(C)ccc4cn[nH]c24)C3)CC1` (stereo not drawn) [Example 17, 1-[4-[7-(6-methyl-1H-indazol-7-yl)-5,6,7,8-tetrahydroquinazolin-4-yl]piperazin-1-yl]prop-2-en-1-one], the half-inhibitory concentration (IC50) in series [1] and in series [3] was 0.7 µM throughout. Further, the EC50 in series [2] was found to be 6.7 µM.

Take `C=CC(=O)N1CCN(c2ncnc3c2CC(C)C(c2cc(O)cc4ccccc24)C3)CC1` (stereo not drawn) [Example 39, 1-(4-(7-(3-hydroxynaphthalen-1-yl)-6-methyl-5,6,7,8-tetrahydroquinazolin-4-yl)piperazin-1-yl)prop-2-en-1-one]: the 50% inhibitory concentration (IC50) in series [1] and in series [3] was 0.18 µM in each case. This compound registered a concentration giving a half-maximal response (EC50) in series [2] of 0.72 µM.

Consider `C=CC(=O)N1CCN(c2ncnc3c2CCC(c2cc(O)cc4ccccc24)C3)CC1` (stereo not drawn) [Example 43, 1-[4-[7-(3-hydroxy-1-naphthyl)-5,6,7,8-tetrahydroquinazolin-4-yl]piperazin-1-yl]prop-2-en-1-one], for which the IC50 in series [1] and in series [3] was 0.2 µM in each case.

As for `C=CC(=O)N1CC2(CCN(c3nc(OCC4CCCN4C)nc4c3CCC(c3cc(O)cc5ccccc35)C4)CC2)C1` (stereo not drawn) [Example 51, 1-[7-[7-(3-hydroxy-1-naphthyl)-2-[(1-methylpyrrolidin-2-yl)methoxy]-5,6,7,8-tetrahydroquinazolin-4-yl]-2,7-diazaspiro[3.5]nonan-2-yl]prop-2-en-1-one], the IC50 in series [1] and in series [3] was 0.046 µM each time. This compound also came in with an EC50 in series [2] of 0.33 µM.

The compound `C=CC(=O)N1CCN(c2nc(OCCC3CCCN3C)nc3c2CCC(c2cc(O)cc4ccccc24)C3)CC1` (stereo not drawn) [Example 52, 1-(4-(7-(3-hydroxynaphthalen-1-yl)-2-(2-(1-methylpyrrolidin-2-yl)ethoxy)-5,6,7,8-tetrahydroquinazolin-4-yl)piperazin-1-yl)prop-2-en-1-one] returned an IC50 in series [1] of 0.051 µM.

In series [1], `C=CC(=O)N1CCN(c2nc(OCCCN3CCOCC3)nc3c2CCC(c2cc(O)cc4ccccc24)C3)C(C)C1` (stereo not drawn) [Example 53, 1-(4-(7-(3-hydroxynaphthalen-1-yl)-2-(3-morpholinopropoxy)-5,6,7,8-tetrahydroquinazolin-4-yl)-3-methylpiperazin-1-yl)prop-2-en-1-one] showed a concentration for half-maximal inhibition (IC50) of 0.022 µM.

In series [1], `C=CC(=O)N1CCN(c2nc(OCc3cn(C)cn3)nc3c2CCC(c2cc(O)cc4ccccc24)C3)C(C)C1` (stereo not drawn) [Example 54, 1-(4-(7-(3-hydroxynaphthalen-1-yl)-2-((1-methyl-1H-imidazol-4-yl)methoxy)-5,6,7,8-tetrahydroquinazolin-4-yl)-3-methylpiperazin-1-yl)prop-2-en-1-one] yielded a half-maximal inhibitory concentration (IC50) of 0.47 µM.

Turning to `C=CC(=O)N1CCN(c2nc(OCC3CCC(=O)N3)nc3c2CCC(c2cc(O)cc4ccccc24)C3)C(C)C1` (stereo not drawn) [Example 55, 5-(((4-(4-acryloyl-2-methylpiperazin-1-yl)-7-(3-hydroxynaphthalen-1-yl)-5,6,7,8-tetrahydroquinazolin-2-yl)oxy)methyl)pyrrolidin-2-one], half-maximal inhibition in series [1] (IC50) was put at 1.4 µM.

In the case of `C=CC(=O)N1CC(C)N(c2nc(OCC3CCCN3C)nc3c2CCC(c2cc(O)cc4ccccc24)C3)C(C)C1` (stereo not drawn) [Example 56, 1-(4-(7-(3-hydroxynaphthalen-1-yl)-2-((1-methylpyrrolidin-2-yl)methoxy)-5,6,7,8-tetrahydroquinazolin-4-yl)-3,5-dimethylpiperazin-1-yl)prop-2-en-1-one], half-maximal inhibition in series [1] (IC50) was put at 0.073 µM.

In series [1], `C=CC(=O)Oc1cc(C2CCc3c(nc(OCC4CCCN4C)nc3N3CCN(C(=O)C=C)C(CC#N)C3)C2)c2ccccc2c1` (stereo not drawn) [Example 59, 4-(4-(4-acryloyl-3-(cyanomethyl)piperazin-1-yl)-2-((1-methylpyrrolidin-2-yl)methoxy)-5,6,7,8-tetrahydroquinazolin-7-yl)naphthalen-2-yl acrylate] gave an IC50 of 0.25 µM. Compared with the last compound, the IC50 is about 3.4-fold higher.

Turning to `C=CC(=O)N1CCN(c2nc(OCC3CCCN3C)nc3c2CCC(c2cc(O)cc4ccccc24)C3)C(CC#N)C1` (stereo not drawn) [Example 60, 2-(4-acryloyl-1-(7-(3-hydroxynaphthalen-1-yl)-2-((1-methylpyrrolidin-2-yl)methoxy)-5,6,7,8-tetrahydroquinazolin-4-yl)piperazin-2-yl)acetonitrile], the half-maximal inhibitory concentration (IC50) in series [1] and in series [3] was 0.026 µM each time. The 50% effective concentration (EC50) in series [2] was 1.3 µM.
